Test results published in patent US7354941B2, “Nicotinamide benzofused-heterocyclyl derivatives useful as selective inhibitors of PDE4 isozymes” (Pfizer Products Inc., priority 2000, dated 2008).

How the values were obtained:
[1] = system: high-affinity rolipram binding site (Sr); details: cited from earlier work
[2] = in vivo; cited from earlier work
[3] = system: rhinorrhea; details: antigen-challenged pig; cited from earlier work
[4] = system: patients; details: orally 5, 10, and 15 mg b.i.d., week 2; cited from earlier work
[5] = system: patients with COPD; details: cited from earlier work
[6] = system: PDE4; details: cited from earlier work
[7] = system: atopic dermatitis; details: topical, cited from earlier work
[8] = system: antigen-induced lung eosinophilia; details: guinea-pig; cited from earlier work
[9] = system: streptococcal cell wall (SCW)-induced arthritis; details: in vivo; cited from earlier work
[10] = system: TNF-α mRNA expression; details: collagen II treated mice; cited from earlier work
[11] = system: rheumatoid arthritis patients; details: 35 patients, t.i.d., placebo-controlled; cited from earlier work
[12] = system: guinea-pig trachea; details: cited from earlier work
[13] = system: human peripheral blood mononuclear cells (HPBM); details: normal patients and subjects with atopic dermatitis; cited from earlier work
[14] = system: epidermal basal cells; details: primary culture; cited from earlier work
[15] = system: psoriatic epidermal slices; details: cited from earlier work
[16] = system: psoriatic lesions; details: two double-blind studies versus vehicle; cited from earlier work
[17] = system: endotoxin-induced acute renal failure; details: cited from earlier work
[18] = system: histamine-induced and antigen-induced bronchoconstriction; details: guinea-pig; cited from earlier work
[19] = system: antigen-induced bronchoconstriction; details: guinea-pig; cited from earlier work
[20] = system: colitis; details: rat; cited from earlier work
[21] = system: antigen-induced bronchospasm; details: rat; cited from earlier work
[22] = system: Patients with severe COPD; details: cited from earlier work; for mean pulmonary artery pressure: oral administration, severe COPD
[23] = system: isolated pulmonary artery rings; details: rings from normal rats and rats with hypoxia-induced pulmonary hypertension; cited from earlier work
[24] = system: allergic rhinitis; details: in vivo; cited from earlier work
[25] = system: lipopolysaccharide-induced bowel erythrocyte extravasation; details: pretreatment i.p. 3×, rats; cited from earlier work
[26] = system: patients suffering from septic shock; details: 1 mg/kg/hr, after 24 hours; cited from earlier work
[27] = system: seratonin-induced bronchoconstriction; details: dog; cited from earlier work

With `O=c1c2cccnc2n(-c2cccc([N+](=O)[O-])c2)c(=O)n1Cc1ccncc1` [RS-23,544] as the compound, how does the “affinity at the Sr” value [1] read?
Its value is “high affinity at the Sr”.

What about the emesis [2] of the same compound?
The emesis was “elicit emesis”.

With `CC(O)c1ccc(CNC(=O)c2cccnc2Oc2ccc3nonc3c2)s1` (racemic) [Example 6, (±)-2-[Benzo[2,1,3]oxadiazol-5-yloxy]-N-[5-[1-hydroxy-ethyl]-thiophen-2-ylmethyl]-nicotinamide] as the compound, how does the melting point read?
The melting point was 81 to 83 °C.

Which melting point does the source give for `CC(=O)c1ccc(CNC(=O)c2cccnc2Oc2ccc3nonc3c2)cc1` [Example 7, N-[4-Acetyl-benzyl]-2-[benzo[2,1,3]oxadiazol-5-yloxy]-nicotinamide] here?
Its melting point is 154 to 156 °C.

For `CC(C)(O)c1ccc(CNC(=O)c2cccnc2Oc2ccc3nonc3c2)c(Cl)c1` [Example 9, 2-(Benzo[2,1,3]oxadiazol-5-yloxy)-N-[2-chloro-4-(1-hydroxy-1-methyl-ethyl)-benzyl]-nicotinamide], which melting point is on record?
Its melting point is 171 to 173 °C.

For `CCCn1c(=O)c2c(C)nc(CC)n2c2nc(OC)ccc21` [Example D-22888], which “anti-allergic effect and rhinorrhea” value [3] is on record?
Its value is “exhibit a strong anti-allergic affect and to inhibit rhinorrhea”.

Which results are given for `COc1ccc([C@]2(C#N)CC[C@@H](C(=O)O)CC2)cc1OC1CCCC1` [SB-207,499]?
trough FEV1 from placebo [4]: significant increases; improvement in trough FEV1 ([5]; 15 mg b.i.d., week 6): 11%; maximum mean difference in trough FEV1 compared with placebo ([5]; 15 mg b.i.d., week 6): 160 mL; FEV1 and forced vital capacity (FVC) ([5]; 15 mg twice a day for six weeks): increrases in FEV1 and forced vital capacity (FVC); FEV1 ([5]; four week trial): evidence of improved FEV1; affinity at the Sr [1]: comparatively low affinity at the Sr

Which IC50 [6] does the source give for `COc1ccc(-c2nc3cnccc3o2)c2c1OC1(CCCC1)C2` [(0.0.48)] here?
The IC50 was 2.5 nM.

Which melting point does the source give for `CC(NC(=O)c1cccnc1Oc1ccc2nonc2c1)c1ccc(C(C)(C)O)cc1` (racemic) [Example 17, (±)-2-(Benzo[2,1,3]oxadiazol-5-yloxy)-N-{1-[4-(1-hydroxy-1-methyl-ethyl)-phenyl]ethyl}-nicotinamide] here?
Its melting point is 116 to 117 °C.

Which results are given for `COc1ccc(C2CNC(=O)NC2)cc1O[C@H]1C[C@@H]2CC[C@H]1C2` [CP-80,633]?
affinity at the Sr [1]: high affinity at the Sr; emesis [2]: elicit emesis; inflammatory parameters ([7]; bilaterally over eight days, twenty patients): effectively inhibit all of the inflammatory parameters tested; adverse effects ([7]; eight days): no adverse effects

Which melting point does the source give for `O=C(NCc1ccc(C(O)C(F)(F)F)cc1)c1cccnc1Oc1ccc2nonc2c1` (racemic) [Example 5, (±)-2-[Benzo[2,1,3]oxadiazol-5-yloxy]-N-[4-[2,2,2-trifluoro-1-hydroxy-ethyl]-benzyl]-nicotinamide] here?
The melting point was 164 to 166 °C.

With `CC(C)(O)c1ccc(CNC(=O)c2cccnc2Oc2ccc3nonc3c2)c(F)c1` [Example 2, 2-[Benzo[2,1,3]oxadiazol-5-yloxy]-N-[2-fluoro-4-[1-hydroxy-1-methyl-ethyl]-benzyl]-nicotinamide] as the compound, how does the melting point read?
Its melting point is 160 to 161 °C.

What does the source list for `COc1ccc(C(=O)Nc2c(Cl)cncc2Cl)cc1OC1CCCC1` [RP-73,401]?
inhibition of antigen-induced lung, BAL and airway eosinophilia, EPO, PAF- and ozone-induced AHR, IL-5 induced pleural eosinophila [8]: active; affinity at the Sr [1]: high affinity at the Sr; emesis [2]: elicit emesis; disease: joint destruction, synovitis, and fibrosis [9]: significant amelioration of disease; TNF-α mRNA expression at the pannus/cartilage interface of paw joints [10]: decrease TNF-α mRNA expression; clinical improvement [11]: positive trend towards clinical improvement

What does the source list for `CC1CC1c1nc(NC2CC2)nc(N2CCOCC2)n1` (stereo not shown) [(0.0.57)]?
IC50 [6]: 140 nM; relaxant activity, guinea-pig trachea model [12]: potent relaxant agents

For `COc1ccc(CC2CNC(=O)N2)cc1OC1CCCC1` (stereo not shown) [Ro 20-1724], which “inhibition of the proliferation of HPBM” value [13] is on record?
The value was “concentration-related inhibition”.

And the cAMP concentrations [14]?
The cAMP concentrations was “three-fold increase”.

What about the “increase in cAMP concentration” value ([15]; keratomed psoriatic epidermis) of the same compound?
The value was 1395%.

And the “cAMP concentrations over controls” value ([15]; psoriatic epidermal slices and keratomed psoriatic epidermal slices)?
Its value is “very marked elevation of cAMP concentrations over controls”.

What about the “psoriatic lesions and adverse effects” value [16] of the same compound?
The value was “improve psoriatic lesions without adverse systemic or cutaneous effects”.

What about the survival rates ([17]; endotoxin-treated rats) of the same compound?
Its survival rates is “improve survival rates”.

What about the “renal vascular resistance, renal blood flow and glomerular filtration rate” value ([17]; post-treatment at 10 μg/kg/min) of the same compound?
The value was “markedly attenuates endotoxin-induced increases in renal vascular resistance and decreases in renal blood flow and glomerular filtration rate”.

What about the “urinary cAMP excretion” value ([17]; post-treatment at 10 μg/kg/min) of the same compound?
The value was “significantly increases urinary cAMP excretion”.

With `O=c1c2c(ncn2Cc2cccnc2)c2cccnc2n1-c1ccccc1` [KF19514] as the compound, how does the “inhibition of histamine- and antigen-induced bronchoconstriction, PAF- and antigen-induced eosinophilia, AHR, bronchospasm, anaphylactic bronchoconstriction” value [18] read?
The value was “activity”.

With `CCCn1c(=O)c2[nH]cnc2n(-c2ccc(Cl)cc2)c1=O` [LAS-31025] as the compound, how does the “inhibition of antigen-induced bronchoconstriction” value [19] read?
Its value is “active”.

And the “effects in dextran sulfate induced colitis model” value [20]?
The value was “beneficial effects comparable to prednisolone”.

And the “effects in models of colitis” value [20]?
The value was “beneficial effects”.

With `COc1ccc(CNc2c(C)noc2C)cc1OC1CCCC1` [RPR-132294] as the compound, how does the “inhibition of antigen-induced bronchospasm” value [21] read?
Its value is “activity in the inhibition of antigen-induced bronchospasm”.

Which “mean pulmonary artery pressure” value [22] does the source give for `Cc1[nH]c(=O)c(C#N)cc1-c1ccncc1` [milrinone] here?
Its value is “decreases in mean pulmonary artery pressure”.

What about the “relaxant activities of isoproterenol and forskolin” value [23] of the same compound?
The value was “same effect has been observed”.

For `O=C(Nc1c(Cl)cncc1Cl)C(=O)c1cn(Cc2ccc(F)cc2)c2ccc(O)cc12` [AWD-12,281], which “activity in a rat model of allergic rhinitis” value [24] is on record?
Its value is “active”.

With `CC(NC(=O)c1cccnc1Oc1ccc2nonc2c1)c1ccc(C(C)(C)O)cc1F` (racemic) [Example 8, (±)-2-(Benzo[2,1,3]oxadiazol-5-yloxy)-N-{1-[2-fluoro-4-(1-hydroxy-1-methyl-ethyl)-phenyl]-ethyl}-nicotinamide] as the compound, how does the melting point read?
Its melting point is 128 to 130 °C.

For `O=S1(=O)CCN(c2nc(NC3CC3)nc(C3CC3)n2)C1` [(0.0.56)], which IC50 [6] is on record?
The IC50 was 150 nM.

What about the “relaxant activity, guinea-pig trachea model” value [12] of the same compound?
The value was “potent relaxant agents”.

For `Nc1nc2c([nH]1)c(=O)n(CC1CC1)c(=O)n2CC1CC1` [BRL-61,063], which “adverse events of nausea and vomiting” value [2] is on record?
The value was “adverse events of nausea and vomiting”.

For `O=c1c2[nH]cnc2c2cccnc2n1-c1ccccc1` [KF17625], which “inhibition of histamine- and antigen-induced bronchoconstriction, PAF- and antigen-induced eosinophilia, AHR, bronchospasm, anaphylactic bronchoconstriction” value [18] is on record?
Its value is “activity”.

For `CSc1ccc(C(=O)c2[nH]c(=O)[nH]c2C)cc1` [enoximone], which “mean pulmonary artery pressure” value [22] is on record?
The value was “decreases in mean pulmonary artery pressure”.

What about the airway resistance ([22]; patients hospitalized with decompensated COPD) of the same compound?
Its airway resistance is “reduce airway resistance”.

Which results are given for `CC(=O)CCCCn1c(=O)c2c(ncn2C)n(C)c1=O` [pentoxifylline]?
lipopolysaccharide-induced bowel erythrocyte extravasation [25]: reduces lipopolysaccharide-induced bowel erythrocyte extravasation; IL-6 levels [26]: significantly increased; TNF-α levels [26]: significantly lowered

For `COc1ccc(/C(C)=N/OC(N)=O)cc1OC1CCCC1` [WAY-PDA-641], which “inhibition of seratonin-induced bronchoconstriction” value [27] is on record?
Its value is “active”.
